{"source": "patent US20190314298A1", "about": "“COMPOSITIONS FOR PREVENTING AND RELIEVING HANGOVER & LIVER DAMAGE WHICH OCCUR DUE TO ALCOHOL CONSUMPTION” (priority 2018, published 2019)", "origin": "cited, not measured here", "data": [{"details": "biological activities listed in background table", "values": [{"compound": "Demethoxy curcumin", "Activity": "antioxidant"}, {"compound": "COc1cc(/C=C/C(=O)/C=C(O)\\C=C\\c2ccc(OC)c(OC)c2)ccc1O", "note": "[Methylcurcumin]", "Activity": "L. amazonensis"}, {"compound": "COc1cc(/C=C/C(=O)CC(=O)/C=C/c2ccc([O-])c(OC)c2)ccc1[O-].[Na+].[Na+]", "note": "[Sodium curcuminate]", "Activity": "anti-inflammatory"}, {"compound": "CC(C)=CC(=O)CC(C)c1ccc(C)cc1", "note": "(centres unmarked) [Ar-turmerone]", "Activity": "snakebite"}, {"compound": "O=C(C=Cc1ccc(O)cc1)CC(=O)C=Cc1ccc(O)cc1", "note": "[Bisdemethoxy curcumin]", "Activity": "antioxidant"}]}]}
